According to patent publication US12071624B2, “Antisense oligonucleotide targeting ARL4C molecule, and nucleic acid drug using antisense oligonucleotide” (OSAKA UNIVERSITY, priority 2018, dated 2024):
[AmNA] = 2',4'-bridged nucleic acid with N-methyl amide bridge (AmNA); d = 2'-deoxy (DNA)

Assays:
ARL4C mRNA = ARL4C mRNA amount by real-time PCR in HLE cells; assay type: cell-based, human; conditions: for effect of reducing the ARL4C mRNA amount at a low concentration: HLE cells transfected at 0.5 to 25 nM
Description: (§1) HLE cells, HCT116 cells, and A549 cells were transfected with 25 to 50 nM ASO and 10 to 20 nM siRNA using Lipofectamine 3000 (Invitrogen, Carlsbad, CA, USA) or RNAiMAX (Invitrogen). Transfected cells were used in the experiments 36 to 48 hours after the end of the transfection.
(§2) Cell migration assays and quantitative real-time PCR analyses were performed according to the methods reported by Fujii S et al. (Oncogene 2015; 34: 4834-44).
HLE cells and HCT116 cells were transfected with the above-described seven types of ARL4C ASOs and the control ASO at 25 nM, and the ARL4C mRNA amounts were measured by real-time PCR; the results thereof are shown in (a) of FIG. 4. […] In order to optimize the effect of these three types of ARL4C ASOs, four bases were added to each of these three types of ARL4C ASOs, whereby ASO-1312, ASO-1450, and ASO-3223 each of which consisted of 19 bases were produced. With these six types of ARL4C ASOs (ASO-1316, ASO-1312, ASO-1454, ASO-1450, ASO-3225, and ASO-3223), the knockdown effect on ARL4C was further studied.
HLE cells were transfected with ARL4C ASOs (ASO-1316, ASO-1312, ASO-1454, ASO-1450, ASO-3225, and ASO-3223) at 25 nM each, and the ARL4C mRNA amounts were measured by real-time PCR; the results are shown in (c) of FIG. 3. In addition, HLE cells were transfected with ARL4C ASOs (ASO-1316, ASO-1312, ASO-3225, and ASO-3223) at 0.5 to 25 nM each, and the ARL4C mRNA amounts were measured by real-time PCR; the results are shown in (b) of FIG. 4.
HLE cells were treated with 10 μM PD184161 or 10 nM CTNNB1 siRNA (siRNA against CTNNB1), and the ARL4C mRNA amount was measured by real-time PCR; the results are shown in (a) of FIG. 5. In addition, HLE cells were treated with 10 nM CTNNB1 siRNA (siRNA against CTNNB1), and the ARL4C mRNA amount was measured by real-time PCR; the results thereof are shown in (a) of FIG. 6. PD184161 is a compound that inhibits MEK without knocking down […].

neurolysin (NLN) mRNA = experiment: Off-target gene mRNA by real-time PCR in HLE cells (NLN); assay type: cell-based, human; conditions: HLE cells transfected at 25 nM
Description: (§3) Potential off-target genes in ARL4C ASO (hARL4C ASO-1316-AmNA [15-mer] (ARL4C ASO-1316) and hARL4C-3223-AmNA [19-mer] (ARL4C ASO-3223)) were identified by using database “Human Genomic plus Transcript (Human G+T)” (Build 2.7.1) as well as basic local alignment search tools (BLAST+programs) using MegaBlast algorithm.
as §2
(§4) Four genes of neurolysin (NLN), sapiens F-box and leucine-rich repeat protein 19 (FBXL19), keratin-associated protein 15-1 (KRTAP15-1), and sialic acid binding Ig-like lectin 6 (SIGLEC6) were identified as candidates for off-target genes of ASO-1316 and ASO-3223 by in silico analysis. HLE cells were transfected with ASO-1316 and ASO-3223 at 25 nM each, and mRNA amounts of NLN and FBXL19 were measured by real-time PCR; the results are shown in (d) of FIG. 3. […] In addition, KRTAP15-1 and SIGLEC6 were only slightly expressed in the HLE cells (data not shown).

FBXL19 mRNA = experiment: Off-target gene mRNA by real-time PCR in HLE cells (FBXL19); assay type: cell-based, human; conditions: HLE cells transfected at 25 nM
Description: as §3, §2, §4

HLE cells = experiment: Cell proliferation assay (CyQUANT NF) in HLE cells; assay type: cell-based; conditions: HLE cells transfected with ASO at 25 nM
Description: as §1
The cell proliferation assays were performed using the CyQUANT NF Cell Proliferation Assay Kits (Thermo Fisher Scientific), in the way recommended by the manufacturer.
HLE cells were transfected with control ASO, ASO-1316 and ASO-3223 at 25 nM and a proliferation assay was performed; the results of the assay are shown in (e) of FIG. 4.
HLE cells were transfected with control siRNA and PIK3CD siRNA (siRNA against PIK3CD) at 20 nM, and a proliferation assay was performed; the results are shown in (e) of FIG. 5. In addition, an anti-phosphorylated AKT antibody and an anti-AKT antibody as probes were caused to act on cell lysates of HLE cells transfected with control siRNA and PIK3CD siRNA; the results are shown in FIG. 5 (f). HLE cells were transfected with control siRNA and PIK3CD siRNA (siRNA against PIK3CD) at 20 nM and the PIK3CD mRNA amount was measured by real-time PCR; the results are shown in (c) of FIG. 7.

HCT116 cells = experiment: Cell migration assay in HCT116 cells; assay type: cell-based; conditions: HCT116 cells transfected at 25 nM
Description: as §1, §2
In addition, HCT116 cells were transfected with control ASO, ASO-1316 and ASO-3223 at 25 nM, and a cell migration assay was carried out; the results are shown in (e) of FIG. 3.

[1] = system: nuclear localization of YAP in A549 cells; experiment: Anti-YAP/TAZ antibody staining in A549 cells; assay type: cell-based, human; conditions: A549 cells transfected at 25 nM
Description: as §1
(§5) HLE cells or A549 cells were transfected with control ASO, ASO-1316, and ASO-3223 at 25 nM, and were stained with an anti-YAP/TAZ antibody; the results are shown in (c) of FIG. 6.

[2] = system: nuclear localization of YAP in HLE cells; experiment: Anti-YAP/TAZ antibody staining in HLE cells; assay type: cell-based; conditions: HLE cells transfected at 25 nM
Description: as §1, §5

PIK3CD mRNA = PIK3CD mRNA amount by real-time PCR in HLE cells; assay type: cell-based, human; conditions: HLE cells transfected with ASO at 25 nM
Description: as §1, §2
HLE cells were treated with 25 μM SecinH3 (inhibitor of Arf nucleotide-binding site opener (ARNO)) or 50 μM NSC23766 (Rac inhibitor), and the amount of PIK3CD mRNA was measured by real-time PCR; the results are shown in (c) of FIG. 5.
HLE cells were transfected with control ASO, ASO-1316, and ASO-3223 at 25 nM, and the PIK3CD mRNA amount was measured by real-time PCR; the results are shown in (g) of FIG. 5. In addition, an anti-phosphorylated AKT (pAKT S473) antibody and an anti-AKT antibody as probes were caused to act on cell lysates of HLE cells transfected with control ASO, ASO-1316, and ASO-3223; the results are shown in (h) of FIG. 5.

Substance | ARL4C mRNA amount (ARL4C mRNA; HLE cells transfected at 25 nM) | effect of reducing the ARL4C mRNA amount at a low concentration (ARL4C mRNA) | NLN mRNA amount (off-target) (neurolysin (NLN) mRNA) | FBXL19 mRNA amount (off-target) (FBXL19 mRNA) | cell proliferation (HLE cells) | cell migration (HCT116 cells) | nuclear localization of YAP [1] | nuclear localization of YAP [2] | PIK3CD mRNA amount / PIK3CD expression (PIK3CD mRNA)
ASO-1316: 15-mer AmNA/phosphorothioate ASO targeting ARL4C, base sequence SEQ ID NO: 1 gcatacctcaggtaa; Table 1 SEQ ID NO 13 (antisense GCATACCTCAGGTAA; AmNA and phosphorothioate modified, pattern not given here) | reduced the ARL4C mRNA amount | high effects of reducing the ARL4C mRNA amount | did not significantly affect the expression | did not significantly affect the expression | inhibit HLE cells from proliferating | suppress the migration of HCT116 cells | inhibited the nuclear localization of YAP | did not affect the nuclear localization of YAP | suppressing PIK3CD expression
ASO-3223: 19-mer ARL4C ASO of Table 1, SEQ ID NO 55 (antisense NNNGGTTACAGTATTTNNC; sugars from the 5' end [AmNA]3 d13 [AmNA]2 d1, backbone, methylation of C and the base at N not given here; further chemistry not fully specified) | – | high effects of reducing the ARL4C mRNA amount | did not significantly affect the expression | did not significantly affect the expression | inhibit HLE cells from proliferating | suppress the migration of HCT116 cells | inhibited the nuclear localization of YAP | did not affect the nuclear localization of YAP | suppressing PIK3CD expression
